The supplement of paper PMC10307832

What was measured:
Test in all cases: relative viability (nuclei count vs DMSO), 5 days (fraction); higher = more cells survive
Selisistat + Alpelisib = compound: C1CC(C2=C(C1)C3=C(N2)C=CC(=C3)Cl)C(=O)N [Selisistat] + Cc1nc(NC(=O)N2CCC[C@H]2C(N)=O)sc1-c1ccnc(C(C)(C)C(F)(F)F)c1 [Alpelisib] (partner 2 µM)
How it was run: (§1)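 Values are medians from duplicate plates. Each reflects relative viability, defined as the nuclei count of treated wells over that of vehicle wells. Lung cancer cell lines in 1536-well plates were pin-tool dosed one day after seeding with one drug alone or with a fixed anchor-drug dose plus five library-drug doses (not always all listed) in √10 steps, then fixed, stained and imaged at 4× after 5 days.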

Selisistat + Dasatinib = compound: C1CC(C2=C(C1)C3=C(N2)C=CC(=C3)Cl)C(=O)N [Selisistat] + Cc1nc(Nc2ncc(C(=O)Nc3c(C)cccc3Cl)s2)cc(N2CCN(CCO)CC2)n1 [Dasatinib] (partner 0.075 µM)
How it was run: as §1

Serdemetan + Foretinib = compound: c1ccc2c(CCNc3ccc(Nc4ccncc4)cc3)c[nH]c2c1 [Serdemetan] + COc1cc2c(Oc3ccc(NC(=O)C4(C(=O)Nc5ccc(F)cc5)CC4)cc3F)ccnc2cc1OCCCN1CCOCC1 [Foretinib] (partner 0.25 µM)
How it was run: as §1

Serdemetan + Phenformin = compound: c1ccc2c(CCNc3ccc(Nc4ccncc4)cc3)c[nH]c2c1 [Serdemetan] + N=C(N)NC(=N)NCCc1ccccc1 [Phenformin] (partner 250 µM)
How it was run: as §1

| Cell Line | relative viability (Selisistat + Alpelisib; first compound 0.4 µM) | relative viability (Selisistat + Alpelisib; first compound 1.265 µM) | relative viability (Selisistat + Alpelisib; first compound 4 µM) | relative viability (Selisistat + Alpelisib; first compound 12.65 µM) | relative viability (Selisistat + Alpelisib; first compound 40 µM) | relative viability (Selisistat + Dasatinib; first compound 0.4 µM) | relative viability (Selisistat + Dasatinib; first compound 1.265 µM) | relative viability (Selisistat + Dasatinib; first compound 4 µM) | relative viability (Selisistat + Dasatinib; first compound 12.65 µM) | relative viability (Selisistat + Dasatinib; first compound 40 µM) | relative viability (Serdemetan + Foretinib; first compound 0.04 µM) | relative viability (Serdemetan + Foretinib; first compound 0.1265 µM) | relative viability (Serdemetan + Foretinib; first compound 0.4 µM) | relative viability (Serdemetan + Foretinib; first compound 1.265 µM) | relative viability (Serdemetan + Foretinib; first compound 4 µM) | relative viability (Serdemetan + Phenformin; first compound 0.04 µM) | relative viability (Serdemetan + Phenformin; first compound 0.1265 µM) | relative viability (Serdemetan + Phenformin; first compound 0.4 µM) | relative viability (Serdemetan + Phenformin; first compound 1.265 µM) | relative viability (Serdemetan + Phenformin; first compound 4 µM) |
| --- | --- | --- | --- | --- | --- | --- | --- | --- | --- | --- | --- | --- | --- | --- | --- | --- | --- | --- | --- | --- |
| HCC-366 | 0.341 | 0.337 | 0.268 | 0.397 | 0.354 | 0.591 | 0.606 | 0.297 | 0.599 | 0.588 | 0.948 | 0.812 | 0.197 | 0.073 | 0.0559 | 0.665 | 0.627 | 0.547 | 0.0583 | 0.0869 |
| HCC-827 | 0.98 | 0.976 | 0.919 | 0.999 | 0.978 | 0.393 | 0.38 | 0.306 | 0.421 | 0.301 | 0.991 | 0.948 |  | 0.594 | 0.62 | 0.415 | 0.406 |  | 0.314 | 0.366 |
| HOP-62 | 0.796 | 1.02 | 1.06 | 0.944 | 1 | 0.677 | 0.626 | 0.507 | 0.642 | 0.664 | 1.04 | 1.08 | 1.1 | 0.796 | 0.693 | 0.718 | 0.63 | 0.721 | 0.548 | 0.583 |
| IA-LM | 0.882 | 0.79 | 0.545 | 0.74 | 0.696 |  |  |  |  |  | 1.04 | 1.06 | 0.877 | 0.999 | 0.414 |  |  |  |  |  |
| LC-2-ad | 1.02 | 0.853 | 0.89 | 0.848 | 0.901 | 0.611 |  | 0.456 | 0.459 | 0.569 | 0.883 | 0.943 | 0.831 | 0.748 | 0.86 | 0.559 | 0.589 | 0.556 | 0.496 | 0.579 |
| LCLC-97TM1 | 0.233 | 0.229 | 0.278 | 0.275 | 0.219 | 0.8 | 0.887 |  | 0.889 | 0.944 | 0.935 | 0.899 | 0.918 |  | 0.767 | 0.455 | 0.382 | 0.463 |  | 0.41 |
| LCLC-103H | 1.03 | 0.963 | 0.99 | 0.92 | 0.94 | 0.527 | 0.475 | 0.456 | 0.507 | 0.548 | 0.697 | 0.81 | 0.647 | 0.556 | 0.569 | 0.336 | 0.352 | 0.343 | 0.349 | 0.322 |
| LK-2 | 1.05 | 0.968 | 0.981 | 0.989 | 1.01 | 0.211 | 0.307 | 0.322 | 0.266 | 0.287 | 1.29 | 1.13 | 1.47 | 1.16 | 0.41 | 0.318 | 0.64 | 0.423 | 0.215 | 0.335 |
| LOU-NH91 | 0.71 | 0.681 | 0.619 | 0.71 | 0.723 | 0.611 | 0.54 | 0.515 | 0.534 | 0.598 | 0.928 | 0.927 | 0.63 | 0.952 | 0.873 | 0.699 | 0.733 | 0.478 | 0.669 | 0.665 |
| LU99A | 0.538 | 0.553 | 0.565 | 0.505 | 0.514 | 0.46 | 0.634 | 0.606 | 0.546 | 0.655 | 0.881 | 0.702 | 0.487 | 0.245 | 0.223 | 0.887 | 0.891 | 0.763 | 0.417 | 0.354 |
| LXF-289 | 1.13 | 1.04 | 0.989 | 1 | 0.984 | 0.286 | 0.239 | 0.305 | 0.245 | 0.303 | 1.02 | 1.01 | 0.951 | 0.62 | 0.793 | 0.483 | 0.522 | 0.5 | 0.457 | 0.517 |
| NCI-H23 | 0.811 | 0.871 |  | 0.662 | 0.688 | 0.784 | 0.95 | 0.571 | 0.8 | 0.772 | 0.891 | 1.01 | 0.831 | 0.791 | 0.706 | 0.855 | 0.752 | 0.887 | 0.56 | 0.746 |
| NCI-H522 |  |  |  |  |  | 0.736 | 0.644 | 0.784 | 0.803 | 0.759 |  |  |  |  |  | 0.669 | 0.669 | 0.67 |  | 0.679 |
| NCI-H1299 | 1.02 | 1.05 | 1.14 | 1.03 | 1.03 |  |  |  |  |  | 1.05 | 1.07 | 1.02 | 0.92 | 0.755 |  |  |  |  |  |
| NCI-H1623 |  |  |  |  |  | 0.518 | 0.587 | 0.41 | 0.551 | 0.57 | 0.901 | 0.917 | 0.698 | 0.756 | 0.703 | 0.618 | 0.617 | 0.37 | 0.476 | 0.739 |
| NCI-H1650 |  |  |  |  |  | 0.298 | 0.297 | 0.295 | 0.286 | 0.313 | 1 | 1.21 | 0.989 | 1.14 | 0.658 | 0.424 | 0.462 | 0.268 | 0.391 | 0.285 |
| NCI-H1703 | 0.28 | 0.385 | 0.265 | 0.336 | 0.397 |  |  |  |  |  | 0.335 | 0.338 | 0.383 | 0.289 | 0.341 |  |  |  |  |  |
| NCI-H1792 | 0.696 | 0.603 |  | 0.685 | 0.693 | 0.806 | 0.805 |  | 0.677 | 0.498 |  |  |  |  |  | 0.268 | 0.316 | 0.283 | 0.127 | 0.198 |
| NCI-H2342 |  |  |  |  |  | 0.312 | 0.339 | 0.297 | 0.33 | 0.363 | 1.22 | 1 | 0.882 | 0.504 | 0.592 | 0.597 | 0.538 | 0.628 | 0.537 | 0.393 |
| SW 900 |  |  |  |  |  | 0.664 | 0.409 | 0.641 | 0.496 | 0.791 | 0.79 | 0.552 | 0.928 | 0.687 | 0.821 | 0.551 | 0.487 | 0.674 | 0.295 | 0.365 |
